Measured values reported in PMC4603705, “A bioinspired peptide scaffold with high antibiotic activity and low in vivo toxicity” (Scientific Reports, 2015).
≈ marks a conversion by molar mass, not a printed value. Entries after “also recorded” stand apart in the source; their conditions may differ. Where two headings read alike, the source gives them in different places. Bridge positions count the residues as written; N and C are the ends. Square brackets hold non-standard residues; d marks the D form. Peptide text beside a SMILES is read from it. * marks the point of attachment. Decanoyl = CCCCCCCCCC(=O)*; X1 = CC[C@H](C)CCCCC(=O)*; Nle = CCCC[C@H](N)C(=O)O; Dab = NCC[C@H](N)C(=O)O

Assays:
[1] = test system: P. aeruginosa
Procedure: (§1) Strains of E. coli and P. aeruginosa with resistance to quinolones and carbapenems as well as multi-drug-resistant bacteria were tested.
(§2) MICs were measured after 18–20 h of incubation in sterile 96-well plates (Corning Costar 3598 microtiter plates) in Mueller Hinton Broth (MHB) culture medium, (Difco, USA), according to well known in vitro protocols. Bacterial strains in Table 1 were: P. aeruginosa ATTC 9027, E. coli ATTC 8739, S. aureus ATTC 6538, and E. faecalis ATTC 29212. MICs shown in table 4 were performed by Mary Conrad at Cubist Pharmaceuticals (Lexington, MA) in non-binding surface plates.

[2] = test system: E. coli; conditions: for MIC E. coli NDM-1: highly-resistant, New Delhi metallo-beta-lactamase gene; for MIC E. coli VAL 5 / MIC E. coli MAC 21a / MIC E. coli VAL 10: resistant to nalidixic acid; for MIC E. coli MAC 21a / MIC E. coli VAL 10: cotrimoxazole and ampicillin
Procedure: as §1, §2

[3] = test system: S. aureus (ATCC 29213); assay: Transmission electron microscopy of treated S. aureus; assay type: cell-based, Staphylococcus aureus; conditions: 4 μg/mL, 120 min
Procedure: (§3) An overnight culture (12 to 16 h) of S. aureus (ATCC 29213) or E. coli (ATCC 25922) in Tryptic Soy Broth (TSB) was grown at 37 °C and 500 μL were added in 50 mL of tryptone water (∼10^8 bacteria/mL). […] Cells were collected by centrifugation (10000 rpm, 20 min).
(§4) Samples were fixed with 2.5% glutaraldehyde in phosphate buffer for 2 h at 4 °C, then washed with the same buffer and post fixed with 1% osmium tetroxide in buffer containing 0.8% potassium ferricyanide at 4 °C. The samples were then dehydrated for 1 hour in acetone and infiltrated in a gradded series of Epon resin (Ted Pella Inc., USA) during 2 days, and finally embedded in fresh Epon resin and polymerised at 60 °C during 48 hours.
(§5) Ultrathin sections were obtained using a Leica Ultracut UCT ultramicrotome (Leica, Vienna) and mounted on Formvar-coated copper grids. Sections were stained with 2% aqueous uranyl acetate and lead citrate and examined in a JEM-1010 electron microscope (Jeol, Japan).

[4] = test system: E. coli (ATCC 25922); assay: Flow cytometry (PI membrane permeability, BOX membrane potential), E. coli; assay type: cell-based, Escherichia coli
Procedure: (§6) The mechanism of action at the membrane level of our best candidate was studied using flow cytometry. To assess membrane permeability, a propidium iodide (PI) probe was used[43][44]. The fluorescence conferred by this probe is generally associated with cells that have lost their membrane integrity. The effect on membrane potential was evaluated with bis-(1,3-dibutylbarbituric acid) trimethine oxonol (BOX). Membrane depolarization leads to the incorporation of this anionic dye into the cell where it binds to lipid-rich intracellular compounds, resulting in an increase in fluorescence.
(§7) An overnight culture (12 to 16 h) of S. aureus (ATCC 29213) or E. coli (ATCC 25922) in Tryptic Soy Broth (TSB) was grown at 37 °C and 400 μL were added in 50 mL of tryptone water (∼10^7 bacteria/mL). The bacterial suspension was split into aliquots of 4-5 mL and treated with the peptides (at the MIC) for different incubation times at room temperature. Cells were collected by centrifugation (10000 rpm, 20 min) and resuspended in 1 mL of filtered Ringer’s solution.
(§8) A stock solution of propidium iodide (PI, 1 mg/mL, Molecular Probes) and bis-(1,3-dibutylbarbituric acid) trimethine oxonol (BOX, 250 μM, Sigma Aldrich) was prepared in distilled water. Portions (10 μL and 2 μL, respectively) were added to aliquots of cells (100 μL of each sample in 1 mL of Ringer’s solution) to give a final concentration of 10 μg/mL of PI and 0.5 μM for BOX.
(§9) Flow cytometric measurements were performed on a Gallios multi-colour flow cytometer instrument (Beckman Coulter, Inc, Fullerton, CA) set up with the 3-lasers 10 colors standard configuration. Excitation was done using a blue (488 nm) laser. Forward scatter (FS), side scatter (SS), green fluorescence (525/40 nm) from BOX and red fluorescence (620/30 nm) emitted by PI were collected using logarithmic scales. FS was used as the discriminating parameter. The single-cell bacterial population was selected on a forward-side scatter plot. Fluorescence was presented in a dot plot of BOX vs. PI. Three regions were defined on this graph according to the controls: depolarized, permeabilized and non-affected cells. Control cells (non-stained and single stained populations) were used to define these regions. 25,000 cells defined according to their scatter parameters were counted in each sample.

[5] = test system: E. coli (ATCC 25922); assay: Reduction of viability by plate count, E. coli; assay type: cell-based, Escherichia coli
Procedure: as §7

[6] = test system: E. coli (ATCC 25922); assay: Transmission electron microscopy of treated E. coli; assay type: cell-based, Escherichia coli
Procedure: as §3, §4, §5

[7] = test system: E. coli ATTC 8739; assay type: cell-based, Escherichia coli
Procedure: as §2

[8] = test system: S. aureus (ATCC 29213); assay: Flow cytometry (PI membrane permeability, BOX membrane potential), S. aureus; assay type: cell-based, Staphylococcus aureus; conditions: 4 μg/mL
Procedure: as §6, §7, §8, §9

[9] = In vivo acute toxicity test (up-and-down procedure, OECD 425); parameters: species or system mice; conditions: mouse, in vivo, sc; CD-1 mice, subcutaneous, up-and-down procedure, maximum likelihood method, 14 days
Procedure: (§10) An in vivo acute toxicity test was performed on CD-1 mice. The lethal dose (LD50) was determined according to the up-and-down procedure. Compound 38 was administered subcutaneously at designated doses (100, 200 and 400 mg/kg).
(§11) The evaluation of acute toxicity was conducted based on OECD 425 (Acute Oral Toxicity – Up-and-Down-Procedure (UDP) March 2006). The procedure was evaluated and accepted by the Ethical Committee of Experimental Animals of the University of Barcelona.
(§12) The main test consists of a single ordered dose progression in which animals are dosed, one at a time, at a minimum of 24-hour intervals.
(§13) Compound 38 was dissolved in PBS (pH 7.4), and administered subcutaneously to CD-1 mice at selected doses (100, 200 and 400 mg/kg). Since 5 reversals occurred in 6 consecutive animals tested between the 200 mg/Kg dose (the 3 animals, survived), and the 400 mg/Kg dose (the 3 animals died) the test was stopped.
(§14) Mortality was monitored for 14 days post-treatment, and LD50 was determined using the maximum likelihood method.

[10] = test system: CD-1 mice; assay: as above; conditions: for Outcome of mice: CD-1 mice
Procedure: as §10, §11, §12, §13, §14

[11] = test system: S. aureus (ATCC 29213); assay: Reduction of viability by plate count, S. aureus; assay type: cell-based, Staphylococcus aureus; conditions: 4 μg/mL
Procedure: as §7

[12] = test system: P. aeruginosa ATTC 9027; assay type: cell-based, Pseudomonas aeruginosa
Procedure: as §2

[13] = test system: P. aeruginosa; conditions: P. aeruginosa 40b strain characterisation; cited from earlier work
[14] = parameters: method as in PMID 22908162, PMID 24733472; conditions: after iv administration, after 6 h; cited from earlier work
[15] = test system: CD-1 mice; conditions: reported value, no reference given; cited from earlier work
[16] = molecular target: malate:quinone oxidoreductase; parameters: method as in PMID 19564154; conditions: Mycobacterium smegmatis; cited from earlier work
[17] = test system: S. aureus ATTC 6538; assay: microbe, parasite or virus in culture; assay type: cell-based, Staphylococcus aureus; conditions: S. aureus ATTC 6538; Mueller Hinton Broth, 18–20 h
Procedure: as §2

[18] = molecular target: alternative NADH dehydrogenase; parameters: method as in PMID 19564154, PMID 24169795; conditions: Mycobacterium smegmatis; cited from earlier work

CCCCCCCCCC(=O)N[C@@H](CCN)C(=O)N[C@H](C(=O)N[C@@H](CCN)C(=O)N[C@H]1CSSC[C@H](C(N)=O)NC(=O)[C@H](CCN)NC(=O)[C@H](CCN)NC(=O)[C@H](CCCC)NC(=O)[C@@H](Cc2ccccc2)NC(=O)[C@H](CCN)NC1=O)[C@@H](C)O [Analog 38, decanoyl -Dab-Thr-Dab-Cys-Dab-Phe-Nle-Dab-Dab-Cys] (Decanoyl-[Dab]T[Dab]C[Dab][dF][Nle][Dab][Dab][dC]-NH2; disulfide 4-10)
MIC P. aeruginosa 38a [1]: 0.5 µg/mL (≈ 0.404 µM)
MIC P. aeruginosa 40b [1]: 4 µg/mL (≈ 3.23 µM)
MIC E. coli NDM-1 [2]: 0.5 µg/mL (≈ 0.404 µM)
MIC E. coli VAL 5 [2]: 0.5 µg/mL (≈ 0.404 µM)
MIC E. coli MAC 21a [2]: 0.5 µg/mL (≈ 0.404 µM)
MIC E. coli VAL 10 [2]: 0.5 µg/mL (≈ 0.404 µM)
Effect on cell morphology (TEM) [3]: numerous double-layered spherical mesosome-like structures
% of stained cells PI ([4]; 4 μg/mL, 30 min): 7%
% of stained cells BOX ([4]; 4 μg/mL, 30 min, listed as 38): around 50%
% of stained cells BOX ([4]; 4 μg/mL, 30 min, listed as #38): 47%
% of stained cells BOX ([4]; 4 μg/mL, 60 min): 50%
% of stained cells PI ([4]; 4 μg/mL, 60 min): 23%
% of stained cells BOX ([4]; 4 μg/mL, 120 min): 47%
% of stained cells PI ([4]; 4 μg/mL, 120 min): 43%
% viability reduction ([5]; 4 μg/mL, 30 min): 20%
% viability reduction ([5]; 4 μg/mL, 60 min): 60%
% viability reduction ([5]; 4 μg/mL, 120 min): 85%
Effect on cell morphology (TEM) ([6]; 120 min, 2 μg/mL (Figure 2 legend)): abnormal membrane septation and the formation of blebs on the bacterial surface
MIC E. coli ([7]; ATTC 8739): 2 µg/mL (≈ 1.62 µM)
% of stained cells BOX ([8]; 30 min): 1%
% of stained cells PI ([8]; 30 min): 2%
% of stained cells BOX ([8]; 60 min): 1%
% of stained cells PI ([8]; 60 min): 3%
% of stained cells BOX ([8]; 120 min): 4%
% of stained cells PI ([8]; 120 min): 4%
LD50 at 14 days [9]: 283 mg/kg
Outcome of mice ([10]; 100 mg/kg subcutaneous): survived with no signs of toxicity
Outcome of mice ([10]; 200 mg/kg subcutaneous): survived with no signs of toxicity; also recorded: survived
Necropsy of surviving mice ([10]; 200 mg/kg subcutaneous, after 14 days): no signs of pathology in vital organs
Outcome of mice ([10]; 400 mg/kg subcutaneous): died
LD50 relative to LD50 of PxB ([10]; subcutaneous): ~5 times
% viability reduction ([11]; 30 min): 15%
% viability reduction ([11]; 60 min): 60%
% viability reduction ([11]; 120 min): 85%
MIC P. aeruginosa ([12]; ATTC 9027): 1 µg/mL (≈ 0.808 µM)

C[C@@H](O)[C@H]1C(=O)N2C(C(=O)O)=C(SCCN=CN)C[C@H]12 [Imipenem]
MIC, resistance profile of P. aeruginosa 40b [13]: imipenem (MIC 32 mg/L)

CC[C@H](C)CCCCC(=O)N[C@@H](CCN)C(=O)N[C@H](C(=O)N[C@@H](CCN)C(=O)N[C@H]1CCNC(=O)[C@H]([C@@H](C)O)NC(=O)[C@H](CCN)NC(=O)[C@H](CCN)NC(=O)[C@H](CC(C)C)NC(=O)[C@@H](Cc2ccccc2)NC(=O)[C@H](CCN)NC1=O)[C@@H](C)O [Polymyxin B] (X1-[Dab]T[Dab][Dab][Dab][dF]L[Dab][Dab]T; lactam 4-C; N-terminus assumed)
MIC P. aeruginosa 38a ([1]; resistant to ceftazidime, ciprofloxacin, imipenem, piperacillin-tazobactam): 1 µg/mL
MIC P. aeruginosa 40b ([1]; resistant to imipenem): 2 µg/mL (≈ 1.66 µM)
MIC E. coli NDM-1 [2]: 0.5 µg/mL (≈ 0.415 µM)
MIC E. coli VAL 5 [2]: 0.25 µg/mL (≈ 0.208 µM)
MIC E. coli MAC 21a [2]: 0.25 µg/mL (≈ 0.208 µM)
MIC E. coli VAL 10 [2]: 0.25 µg/mL (≈ 0.208 µM)
% of stained cells PI ([4]; 0.5 μg/mL, 5 min): 11%
% of stained cells BOX ([4]; 0.5 μg/mL, 10 min): 35%
% of stained cells PI ([4]; 0.5 μg/mL, 10 min): 20%
% of stained cells BOX ([4]; 0.5 μg/mL, 15 min): 17%
% of stained cells PI ([4]; 0.5 μg/mL, 15 min): 60%
% of stained cells BOX ([4]; 0.5 μg/mL, 30 min): 13%
% of stained cells PI ([4]; 0.5 μg/mL, 30 min): 68%
% of stained cells BOX ([4]; 0.5 μg/mL, 60 min): 23%
% of stained cells PI ([4]; 0.5 μg/mL, 60 min): 57%
% of stained cells BOX ([4]; 0.5 μg/mL, 120 min): 17%
kidney concentration relative to serum concentration [14]: more than 30 times
% viability reduction ([5]; 0.5 μg/mL, 5 min): 0%
% viability reduction ([5]; 0.5 μg/mL, 10 min): 20%
% viability reduction ([5]; 0.5 μg/mL, 15 min): 34%
% viability reduction ([5]; 0.5 μg/mL, 30 min): 65%
% viability reduction ([5]; 0.5 μg/mL, 60 min): 87%
% viability reduction ([5]; 0.5 μg/mL, 120 min): 98%
Effect on cell morphology (TEM) ([6]; 120 min at 0.5 μg/mL): numerous protrusions were observed at the outer cell membrane and even some completely lysed membranes
MIC E. coli ([7]; E. coli ATTC 8739, Mueller Hinton Broth, 18–20 h): 1 µg/mL (≈ 0.831 µM)
LD50 reported for subcutaneous administration [15]: 59.5 mg/kg
IC50 malate:quinone oxidoreductase [16]: 4.3 µg/mL (≈ 3.57 µM)
MIC P. aeruginosa ([12]; P. aeruginosa ATTC 9027, Mueller Hinton Broth, 18–20 h): 2 µg/mL (≈ 1.66 µM)
MIC S. aureus [17]: >32 µg/mL
IC50 alternative NADH dehydrogenase [18]: 1.6 µg/mL (≈ 1.33 µM)
